Molecules are shown by their SMILES.

The test has as its system Ceritinib resistant MGH049 cells. The test can be described thus: Cell colony formation assay with ceritinib resistant MGH049 cells.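 Also: tested compounds are SHP2 inhibitors given alone, colonies fixed and crystal violet stained, DMSO reference taken as the mean of six readings.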 In kind it is cell-based, human. The settings on record: Homo sapiens, 168 h; compound of Table 1 (3 μM) alone, 7 days; normalized to DMSO without compound = 100; read-out: Normalized Crystal Violet abs. (590 nm) DMSO.
With `C[C@H]1C[C@@H](N)C2(CCN(c3nc(N)c(Sc4ccncc4C(F)(F)F)c(=O)n3C)CC2)C1` [compound 28, 6-amino-2-((1R,3R)-1-amino-3-methyl-8-azaspiro[4.5]decan-8-yl)-3-methyl-5-((3-(trifluoromethyl)pyridin-4-yl)thio)pyrimidin-4(3H)-one], the activity at 3 µM was 28.1%.
The value for `CC[C@@H]1OCC2(CCN(c3nc(N)c(Sc4cccnc4C(F)(F)F)c(=O)n3C)CC2)[C@@H]1N` [compound 31, 6-amino-2-((3S,4S)-4-amino-3-ethyl-2-oxa-8-azaspiro[4.5]decan-8-yl)-3-methyl-5-((2-(trifluoromethyl)pyridin-3-yl)thio)pyrimidin-4(3H)-one] was 36.4%; that for `Nc1nc(N2CCC3(CC2)COC[C@H]3N)cnc1Sc1ccnc(N)c1Cl` [compound 11, (S)-8-(6-amino-5-((2-amino-3-chloropyridin-4-yl)thio)pyrazin-2-yl)-2-oxa-8-azaspiro[4.5]decan-4-amine] was 58.9%.
In the case of `C[C@@H]1OCC2(CCN(c3cnc4c(-c5ccnc(Cl)c5Cl)n[nH]c4n3)CC2)[C@@H]1N` [compound 39, (3S,4S)-8-(3-(2,3-dichloropyridin-4-yl)-1H-pyrazolo[3,4-b]pyrazin-6-yl)-3-methyl-2-oxa-8-azaspiro[4.5]decan-4-amine], the activity at 3 µM is 97.9%.
Regarding `COc1nccc(-c2c[nH]c3nc(N4CCC5(CC4)CO[C@@H](C)[C@H]5N)n(C)c(=O)c23)c1Cl` [compound 43, 2-((3S,4S)-4-amino-3-methyl-2-oxa-8-azaspiro[4.5]decan-8-yl)-5-(3-chloro-2-methoxypyridin-4-yl)-3-methyl-3,7-dihydro-4H-pyrrolo[2,3-d]pyrimidin-4-one], the activity at 3 µM was 95.6%.
For `Nc1nc(N2CCC3(CCC[C@H]3N)CC2)cnc1Sc1ccnc(N)c1Cl` [compound 6, (R)-8-(6-amino-5-((2-amino-3-chloropyridin-4-yl)thio)pyrazin-2-yl)-8-azaspiro[4.5]decan-1-amine], the activity at 3 µM was found to be 44.5%.
With `C[C@@H]1OCC2(CCN(c3cnc(Sc4cccc(NC(=O)c5c(O)nc6n(c5=O)CCCC6)c4Cl)c(N)n3)CC2)[C@@H]1N` [compound 45, N-(3-((3-amino-5-((3S,4S)-4-amino-3-methyl-2-oxa-8-azaspiro[4.5]decan-8-yl)pyrazin-2-yl)thio)-2-chlorophenyl)-2-hydroxy-4-oxo-6,7,8,9-tetrahydro-4H-pyrido[1,2-a]pyrimidine-3-carboxamide] the figure was 12.1%.
With `C[C@H]1C[C@@H](N)C2(CCN(c3nc(N)c(-c4cccc(Cl)c4Cl)c(=O)n3C)CC2)C1` [compound 29, 6-amino-2-((1R,3R)-1-amino-3-methyl-8-azaspiro[4.5]decan-8-yl)-5-(2,3-dichlorophenyl)-3-methylpyrimidin-4(3H)-one] the figure was 25.1%.
The value for `Nc1nc(N2CCC3(CCC[C@H]3N)CC2)cnc1Sc1cccc(NC(=O)c2c(O)nc3n(c2=O)CCCC3)c1Cl` [compound 47, (R)-N-(3-((3-amino-5-(1-amino-8-azaspiro[4.5]decan-8-yl)pyrazin-2-yl)thio)-2-chlorophenyl)-2-hydroxy-4-oxo-6,7,8,9-tetrahydro-4H-pyrido[1,2-a]pyrimidine-3-carboxamide] was 14.8%; that for `CC1(CN)CCN(c2nc3[nH]cc(-c4cccc(Cl)c4Cl)c3c(=O)[nH]2)CC1` [compound 38, 2-(4-(aminomethyl)-4-methylpiperidin-1-yl)-5-(2,3-dichlorophenyl)-3,7-dihydro-4H-pyrrolo[2,3-d]pyrimidin-4-one] was 83.9%.
`Nc1nc(N2CCC3(CC2)COC[C@H]3N)cnc1Sc1cccc(NC(=O)c2c(O)nc3n(c2=O)CCCC3)c1Cl` [compound 53, (S)-N-(3-((3-amino-5-(4-amino-2-oxa-8-azaspiro[4.5]decan-8-yl)pyrazin-2-yl)thio)-2-chlorophenyl)-2-hydroxy-4-oxo-6,7,8,9-tetrahydro-4H-pyrido[1,2-a]pyrimidine-3-carboxamide]: the activity at 3 µM turned out to be 46.5%.
With `Cn1c(N2CCC3(CC2)CC(F)(F)C[C@H]3N)nc(N)c(Sc2ccnc(N)c2Cl)c1=O` [compound 33, (R)-6-amino-2-(1-amino-3,3-difluoro-8-azaspiro[4.5]decan-8-yl)-5-((2-amino-3-chloropyridin-4-yl)thio)-3-methylpyrimidin-4(3H)-one] the figure was 73.3%.
With `CC1(CN)CCN(c2cnc(Sc3cccc(NC(=O)c4c(O)nc5n(c4=O)CCCC5)c3Cl)c(N)n2)CC1` [compound 48, N-(3-((3-amino-5-(4-(aminomethyl)-4-methylpiperidin-1-yl)pyrazin-2-yl)thio)-2-chlorophenyl)-2-hydroxy-4-oxo-6,7,8,9-tetrahydro-4H-pyrido[1,2-a]pyrimidine-3-carboxamide] the figure was 52.3%; with `C[C@@H]1OCC2(CCN(c3nc(N)c(Sc4cccnc4C(F)(F)F)c(=O)n3C)CC2)[C@@H]1N` [compound 25, 6-amino-2-((3S,4S)-4-amino-3-methyl-2-oxa-8-azaspiro[4.5]decan-8-yl)-3-methyl-5-((2-(trifluoromethyl)pyridin-3-yl)thio)pyrimidin-4(3H)-one], 52.5%.
With `C[C@H]1C[C@@H](N)C2(CCN(c3nc(N)c(-c4ccccc4)c(=O)n3C)CC2)C1` [compound 36, 6-amino-2-((1R,3R)-1-amino-3-methyl-8-azaspiro[4.5]decan-8-yl)-3-methyl-5-phenylpyrimidin-4(3H)-one] the figure was 23.8%.
In the case of `C[C@H]1C[C@@H](N)C2(CCN(c3cnc(Sc4ccnc(N)c4Cl)c(N)n3)CC2)C1` [compound 12, (1R,3R)-8-(6-amino-5-((2-amino-3-chloropyridin-4-yl)thio)pyrazin-2-yl)-3-methyl-8-azaspiro[4.5]decan-1-amine], the activity at 3 µM amounted to 30.1%.
The value for `CC1(CN)CCN(c2cnc(Sc3cccc(NC(=O)c4c(O)nc5ccccn5c4=O)c3Cl)c(N)n2)CC1` [compound 50, N-(3-((3-amino-5-(4-(aminomethyl)-4-methylpiperidin-1-yl)pyrazin-2-yl)thio)-2-chlorophenyl)-2-hydroxy-4-oxo-4H-pyrido[1,2-a]pyrimidine-3-carboxamide] was 98.9%; that for `C[C@@H]1OCC2(CCN(c3nc(N)c(Sc4ccncc4C(F)(F)F)c(=O)n3C)CC2)[C@@H]1N` [compound 34, 6-amino-2-((3S,4S)-4-amino-3-methyl-2-oxa-8-azaspiro[4.5]decan-8-yl)-3-methyl-5-((3-(trifluoromethyl)pyridin-4-yl)thio)pyrimidin-4(3H)-one] was 43.6%.
With `NCC1(c2ccccc2)CCN(c2cnc(-c3cccc(Cl)c3Cl)c(N)n2)CC1` [compound 2, 6-(4-(aminomethyl)-4-phenylpiperidin-1-yl)-3-(2,3-dichlorophenyl)pyrazin-2-amine] the figure was 67%; with `Nc1nc(N2CCC3(CC2)CC(F)(F)C[C@H]3N)cnc1Sc1cccc(NC(=O)c2c(O)nc3n(c2=O)CCCC3)c1Cl` [compound 49, (R)-N-(3-((3-amino-5-(1-amino-3,3-difluoro-8-azaspiro[4.5]decan-8-yl)pyrazin-2-yl)thio)-2-chlorophenyl)-2-hydroxy-4-oxo-6,7,8,9-tetrahydro-4H-pyrido[1,2-a]pyrimidine-3-carboxamide], 26.5%.
